{"source": "patent US20130123184A1", "about": "“METHODS FOR […] OF HUMAN FETAL HEMOGLOBIN” (National Institutes of Health, priority 2007, published 2013)", "key": {"[1]": {"test_system": "human γ globin gene expression", "assay": "erythroid colony forming unit (CFUe) assay, real-time PCR of human γ globin gene expression", "assay_type": "cell-based, mouse", "description": "(§1) Experiments were performed with mice that are transgenic for a yeast artificial chromosome that contains the full human β-globin locus. […] However mice do have the appropriate transcription factors to interpret and express the human globin locus.\n(§2) To determine if romidepsin alters human globin expression erythroid colony forming unit assays were conducted. This involved extracting fetal liver cells from the developing embryo, at a time when both γ and β globin are expressed. Cells were then cultured in a semi-solid media (methyl-cellulose) containing growth factors (SCF and Epo) with or without romidepsin. We harvested CFUe colonies at 2 days of culture (a pool of 10 from each treatment, each treatment was performed in duplicate) and performed an immediate cell lysis and cDNA amplification. The cDNA was then subjected to real-time PCR to determine levels of mouse α, human γ and human β globin gene expression. The cells were treated with a range of romidepsin concentrations from 0.185 nM to 18.5 nM, and the colony assay was performed on 6 separate occasions.\n(§3) The results (0.185 nM or 1.85 nM romidepsin) are presented in FIG. 1 relative to mouse α levels, and relative to the control performed in each particular experiment. […] When the 0.185 nM and 1.85 nM data are combined there is a 130-fold increase in γ globin expression, as compared to mouse α globin expression and untreated cells."}, "[2]": {"test_system": "human β globin gene expression", "assay": "erythroid colony forming unit (CFUe) assay, real-time PCR of human β globin gene expression", "assay_type": "cell-based", "details": "0.185 nM or 1.85 nM; relative to mouse α levels and control", "description": "as §1, §2, §3"}, "fetal liver cells": {"test_system": "fetal liver cells", "assay": "toxicity analysis of CFUe colonies (number and size of colonies)", "assay_type": "cell-based, mouse", "description": "as §2\nEach colony was also analyzed for toxicity effects. […] Thus globin analysis at this dose is not presented."}, "fetal hemoglobin": {"test_system": "fetal hemoglobin", "assay": "circulating fetal hemoglobin levels in phase II clinical trial patients (CTCL and PTCL)", "assay_type": "in vivo, human", "details": "at least two months, 44 patients evaluated", "description": "As part of an ongoing phase II clinical trial into the effects of romidepsin in patients with cutaneous (CTCL) and peripheral (PTCL) T-cell lymphoma, the levels of circulating fetal hemoglobin were determined. From a total of 53 patients in the trial, 44 were evaluated. Romidepsin was administered as a 4 hour infusion on days 1, 8, and 15 of a 28 day cycle with a dose of 14 mg/m^2. Fetal hemoglobin levels were measured during at least two months of treatment with romidepsin. Fetal hemoglobin levels were expressed first as a percent of the patient's total hemoglobin and then corrected (by multiplying the total hemoglobin by percent fetal hemoglobin)."}, "[3]": {"details": "fold increase in fetal hemoglobin 0-2, 14 mg/m^2 4 hour infusion days 1, 8, 15 of 28 day cycle"}, "[4]": {"details": "fold increase in fetal hemoglobin 2-5, 14 mg/m^2"}, "[5]": {"details": "fold increase in fetal hemoglobin 5-10, 14 mg/m^2"}, "[6]": {"details": "fold increase in fetal hemoglobin 10-20, 14 mg/m^2"}, "[7]": {"details": "fold increase in fetal hemoglobin >2, 14 mg/m^2"}, "[8]": {"details": "fold increase in fetal hemoglobin >5, 14 mg/m^2"}, "[9]": {"details": "fold increase in fetal hemoglobin >10, 14 mg/m^2"}, "[10]": {"details": "fold increase in fetal hemoglobin >20, 14 mg/m^2"}}, "note": "Entries after “also recorded” stand apart in the source; their conditions may differ.", "data": [{"compound": "C/C=C1\\NC(=O)[C@H]2CSSCC/C=C/[C@H](CC(=O)N[C@H](C(C)C)C(=O)N2)OC(=O)[C@H](C(C)C)NC1=O", "note": "[romidepsin, (1S,4S,10S,16E,21R)-7-[(2Z)-ethylidene]-4,21-diisopropyl-2-oxa-12,13-dithia-5,8,20,23-tetraazabicyclo[8.7.6]tricos-16-ene-3,6,9,19,22-pentanone]", "values": [{"measurement": "fold increase in γ globin expression", "setting": "[1]; 0.185 nM and 1.85 nM data combined, compared to mouse α globin expression and untreated cells, transgenic fetal liver CFUe colonies, 2 days of culture, mean±SEM, n=6", "result": 130, "unit": "fold"}, {"measurement": "γ globin gene expression following romidepsin treatment", "setting": "[1]; 0.185 nM or 1.85 nM, relative to mouse α levels and control", "result": "increase; also recorded: up-regulation"}, {"measurement": "expression of human globin at the highest doses", "setting": "[1]; highest doses of romidepsin", "result": "lower"}, {"measurement": "β globin gene expression following romidepsin treatment", "setting": "[2]", "result": "not affected; also recorded: no change"}, {"measurement": "total number of colonies or size of CFUe", "setting": "fetal liver cells; 0.185 nM and 1.85 nM", "result": "no differences"}, {"measurement": "toxicity to the fetal liver cells", "setting": "fetal liver cells; 18.5 nM, accurate data not gathered", "result": "toxic"}, {"measurement": "% of patients", "setting": "fetal hemoglobin; [3]", "result": 23, "unit": "%"}, {"measurement": "Number of patients", "setting": "fetal hemoglobin; [3]", "result": 10}, {"measurement": "% of patients", "setting": "fetal hemoglobin; [4]", "result": 23, "unit": "%"}, {"measurement": "Number of patients", "setting": "fetal hemoglobin; [4]", "result": 10}, {"measurement": "% of patients", "setting": "fetal hemoglobin; [5]", "result": 20, "unit": "%"}, {"measurement": "Number of patients", "setting": "fetal hemoglobin; [5]", "result": 9}, {"measurement": "% of patients", "setting": "fetal hemoglobin; [6]", "result": 23, "unit": "%"}, {"measurement": "Number of patients", "setting": "fetal hemoglobin; [6]", "result": 10}, {"measurement": "% of patients", "setting": "fetal hemoglobin; [7]", "result": 77, "unit": "%"}, {"measurement": "Number of patients", "setting": "fetal hemoglobin; [7]", "result": 34}, {"measurement": "% of patients", "setting": "fetal hemoglobin; [8]", "result": 55, "unit": "%"}, {"measurement": "Number of patients", "setting": "fetal hemoglobin; [8]", "result": 24}, {"measurement": "% of patients", "setting": "fetal hemoglobin; [9]", "result": 34, "unit": "%"}, {"measurement": "Number of patients", "setting": "fetal hemoglobin; [9]", "result": 15}, {"measurement": "% of patients", "setting": "fetal hemoglobin; [10]", "result": 11, "unit": "%"}, {"measurement": "Number of patients", "setting": "fetal hemoglobin; [10]", "result": 5}]}]}
